Test results: patent publication US7192906B2, “Substituted pyrazole derivatives, production process thereof, and herbicide compositions containing the derivatives” (SDS Biotech K.K., priority 2001, dated 2007)

Experiments:
Format in all cases: in vivo
Digitaria adscendens [1] = assay: Test Example 2 upland soil treatment; details: Table 5, upland soil treatment, index 0-5
Outline: (§1)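 Pre-emergence soil application the day after sowing, active ingredient at 1 kg per hectare as diluted wettable powder, seeds covered with about 1 cm soil. Assessed 21 days after application on a 0–5 scale (5 = ≥90% herbicidal effect or phytotoxicity; 0 = <10%).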

Chenopodium album [2] = assay: Test Example 2 upland soil treatment; details: Table 5, upland soil treatment, index 0-5
Outline: as §1

Setaria viridis [3] = assay: Test Example 2 upland soil treatment; details: Table 5, upland soil treatment, index 0-5
Outline: as §1

Stellaria media [4] = assay: Test Example 2 upland soil treatment; details: Table 5, upland soil treatment, index 0-5
Outline: as §1

Rice (Oryza sativa) = assay: Test Example 3 paddy field treatment, crop phytotoxicity; details: paddy field treatment, transplanted rice Koshihikari, wettable powder, active ingredient 1 kg per hectare, 21st day after the dropping, index 0-5
Outline: (§2)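 Weed seeds sown in puddled paddy soil under 4 cm water, with two-leaf Koshihikari rice transplanted; 10 days later a wettable powder was applied to the water surface at 1 kg active ingredient/ha. Scored 21 days after application on a 0–5 scale (0 = <10%, 5 = ≥90% herbicidal effect or phytotoxicity).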

Scirpus juncoides = assay: Test Example 3 paddy field treatment; details: paddy field treatment, wettable powder, active ingredient 1 kg per hectare, 21st day after the dropping, index 0-5
Outline: as §2

Monochoria vaginalis = assay: Test Example 3 paddy field treatment; details: paddy field treatment, wettable powder, active ingredient 1 kg per hectare, 21st day after the dropping, index 0-5
Outline: as §2

Echinochloa crusgalli = assay: Test Example 3 paddy field treatment; details: paddy field treatment, wettable powder, active ingredient 1 kg per hectare, 21st day after the dropping, index 0-5
Outline: as §2

Ammannia multiflora = assay: Test Example 3 paddy field treatment; details: paddy field treatment, wettable powder, active ingredient 1 kg per hectare, 21st day after the dropping, index 0-5
Outline: as §2

[5] = system: wheat (Triticum aestivum); assay: Test Example 1 upland field foliage treatment, crop phytotoxicity; details: Table 4, upland field foliage treatment, index 0-5
Outline: (§3)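 Post-emergence foliar spray of water-diluted wettable powder at 1 kg active ingredient per hectare, applied 14 days after sowing in upland soil. Weed control or crop phytotoxicity rated 21 days later on a 0–5 scale (5: ≥90%, 0: <10%).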

soybean (Glycine max) [6] = assay: as above; details: Table 4, upland field foliage treatment, index 0-5
Outline: as §3

[7] = system: wheat (Triticum aestivum); assay: Test Example 2 upland soil treatment, crop phytotoxicity; details: Table 5, upland soil treatment, index 0-5
Outline: as §1

soybean (Glycine max) [8] = assay: as above; details: Table 5, upland soil treatment, index 0-5
Outline: as §1

Digitaria adscendens [9] = assay: Test Example 1 upland field foliage treatment; details: Table 4, upland field foliage treatment, index 0-5
Outline: as §3

Chenopodium album [10] = assay: Test Example 1 upland field foliage treatment; details: Table 4, upland field foliage treatment, index 0-5
Outline: as §3

Setaria viridis [11] = assay: Test Example 1 upland field foliage treatment; details: Table 4, upland field foliage treatment, index 0-5
Outline: as §3

Stellaria media [12] = assay: Test Example 1 upland field foliage treatment; details: Table 4, upland field foliage treatment, index 0-5
Outline: as §3

| SMILES | Herbicidal activity DA: Digitaria adscendens (Digitaria adscendens [1]) | Herbicidal activity CA: Chenopodium album (Chenopodium album [2]) | Herbicidal activity SV: Setaria viridis (Setaria viridis [3]) | Herbicidal activity SM: Stellaria media (Stellaria media [4]) | Herbicidal activity OS (phytotoxicity to rice) (Rice (Oryza sativa)) | Herbicidal activity SJ (Scirpus juncoides) | Herbicidal activity MV (Monochoria vaginalis) | Herbicidal activity EC (Echinochloa crusgalli) | Herbicidal activity AM (Ammannia multiflora) | Herbicidal activity (phytotoxicity) TA: Wheat (Triticum aestivum) [5] | Herbicidal activity (phytotoxicity) GM: Soybean (Glycine max) (soybean (Glycine max) [6]) | Herbicidal activity (phytotoxicity) TA: Wheat (Triticum aestivum) [7] | Herbicidal activity (phytotoxicity) GM: Soybean (Glycine max) (soybean (Glycine max) [8]) | Herbicidal activity DA: Digitaria adscendens (Digitaria adscendens [9]) | Herbicidal activity CA: Chenopodium album (Chenopodium album [10]) | Herbicidal activity SV: Setaria viridis (Setaria viridis [11]) | Herbicidal activity SM: Stellaria media (Stellaria media [12]) |
| --- | --- | --- | --- | --- | --- | --- | --- | --- | --- | --- | --- | --- | --- | --- | --- | --- | --- |
| CON=C(Cn1cc(C)c(-c2ccccc2)n1)C(=O)NCc1ccccc1 [Compound 30] | 3 (herbicidal effect of not less than 50% and less than 70%, or phytotoxicity of 50% or more and less than 70%) | 4 (herbicidal effect of not less than 70% and less than 90%, or phytotoxicity of 70% or more and less than 90%) | 4 (herbicidal effect of not less than 70% and less than 90%, or phytotoxicity of 70% or more and less than 90%) | 3 (herbicidal effect of not less than 50% and less than 70%, or phytotoxicity of 50% or more and less than 70%) | 0 (herbicidal effect of not less than 0% and less than 10%, or phytotoxicity of 0% or more and less than 10%) | 4 (herbicidal effect of not less than 70% and less than 90%, or phytotoxicity of 70% or more and less than 90%) | 5 (herbicidal effect of not less than 90%, or phytotoxicity of 90% or more) | 4 (herbicidal effect of not less than 70% and less than 90%, or phytotoxicity of 70% or more and less than 90%) | 4 (herbicidal effect of not less than 70% and less than 90%, or phytotoxicity of 70% or more and less than 90%) | 0 (herbicidal effect of not less than 0% and less than 10%, or phytotoxicity of 0% or more and less than 10%) | 0 (herbicidal effect of not less than 0% and less than 10%, or phytotoxicity of 0% or more and less than 10%) | 0 (herbicidal effect of not less than 0% and less than 10%, or phytotoxicity of 0% or more and less than 10%) | 0 (herbicidal effect of not less than 0% and less than 10%, or phytotoxicity of 0% or more and less than 10%) | 4 (herbicidal effect of not less than 70% and less than 90%, or phytotoxicity of 70% or more and less than 90%) | 4 (herbicidal effect of not less than 70% and less than 90%, or phytotoxicity of 70% or more and less than 90%) | 3 (herbicidal effect of not less than 50% and less than 70%, or phytotoxicity of 50% or more and less than 70%) | 3 (herbicidal effect of not less than 50% and less than 70%, or phytotoxicity of 50% or more and less than 70%) |
| CON=C(Cn1cc(C)c(-c2ccccc2)n1)C(=O)NCC#N [Compound 33] | 5 (herbicidal effect of not less than 90%, or phytotoxicity of 90% or more) | 5 (herbicidal effect of not less than 90%, or phytotoxicity of 90% or more) | 4 (herbicidal effect of not less than 70% and less than 90%, or phytotoxicity of 70% or more and less than 90%) | 5 (herbicidal effect of not less than 90%, or phytotoxicity of 90% or more) | 0 (herbicidal effect of not less than 0% and less than 10%, or phytotoxicity of 0% or more and less than 10%) | 4 (herbicidal effect of not less than 70% and less than 90%, or phytotoxicity of 70% or more and less than 90%) | 5 (herbicidal effect of not less than 90%, or phytotoxicity of 90% or more) | 5 (herbicidal effect of not less than 90%, or phytotoxicity of 90% or more) | 5 (herbicidal effect of not less than 90%, or phytotoxicity of 90% or more) | 0 (herbicidal effect of not less than 0% and less than 10%, or phytotoxicity of 0% or more and less than 10%) | 0 (herbicidal effect of not less than 0% and less than 10%, or phytotoxicity of 0% or more and less than 10%) | 0 (herbicidal effect of not less than 0% and less than 10%, or phytotoxicity of 0% or more and less than 10%) | 0 (herbicidal effect of not less than 0% and less than 10%, or phytotoxicity of 0% or more and less than 10%) | 5 (herbicidal effect of not less than 90%, or phytotoxicity of 90% or more) | 4 (herbicidal effect of not less than 70% and less than 90%, or phytotoxicity of 70% or more and less than 90%) | 4 (herbicidal effect of not less than 70% and less than 90%, or phytotoxicity of 70% or more and less than 90%) | 4 (herbicidal effect of not less than 70% and less than 90%, or phytotoxicity of 70% or more and less than 90%) |
| CON=C(Cn1cc(C)c(-c2ccccc2)n1)C(=O)NCC(F)(F)F [Compound 34] | 5 (herbicidal effect of not less than 90%, or phytotoxicity of 90% or more) | 5 (herbicidal effect of not less than 90%, or phytotoxicity of 90% or more) | 4 (herbicidal effect of not less than 70% and less than 90%, or phytotoxicity of 70% or more and less than 90%) | 5 (herbicidal effect of not less than 90%, or phytotoxicity of 90% or more) | 1 (herbicidal effect of not less than 10% and less than 30%, or phytotoxicity of 10% or more and less than 30%) | 5 (herbicidal effect of not less than 90%, or phytotoxicity of 90% or more) | 5 (herbicidal effect of not less than 90%, or phytotoxicity of 90% or more) | 5 (herbicidal effect of not less than 90%, or phytotoxicity of 90% or more) | 5 (herbicidal effect of not less than 90%, or phytotoxicity of 90% or more) | 0 (herbicidal effect of not less than 0% and less than 10%, or phytotoxicity of 0% or more and less than 10%) | 0 (herbicidal effect of not less than 0% and less than 10%, or phytotoxicity of 0% or more and less than 10%) | 0 (herbicidal effect of not less than 0% and less than 10%, or phytotoxicity of 0% or more and less than 10%) | 0 (herbicidal effect of not less than 0% and less than 10%, or phytotoxicity of 0% or more and less than 10%) | 5 (herbicidal effect of not less than 90%, or phytotoxicity of 90% or more) | 4 (herbicidal effect of not less than 70% and less than 90%, or phytotoxicity of 70% or more and less than 90%) | 4 (herbicidal effect of not less than 70% and less than 90%, or phytotoxicity of 70% or more and less than 90%) | 4 (herbicidal effect of not less than 70% and less than 90%, or phytotoxicity of 70% or more and less than 90%) |
| CNC(=O)C(Cn1cc(C)c(-c2ccc(C)cc2)n1)=NOC [Compound 37] | 5 (herbicidal effect of not less than 90%, or phytotoxicity of 90% or more) | 5 (herbicidal effect of not less than 90%, or phytotoxicity of 90% or more) | 5 (herbicidal effect of not less than 90%, or phytotoxicity of 90% or more) | 5 (herbicidal effect of not less than 90%, or phytotoxicity of 90% or more) | 1 (herbicidal effect of not less than 10% and less than 30%, or phytotoxicity of 10% or more and less than 30%) | 5 (herbicidal effect of not less than 90%, or phytotoxicity of 90% or more) | 5 (herbicidal effect of not less than 90%, or phytotoxicity of 90% or more) | 5 (herbicidal effect of not less than 90%, or phytotoxicity of 90% or more) | 5 (herbicidal effect of not less than 90%, or phytotoxicity of 90% or more) | 0 (herbicidal effect of not less than 0% and less than 10%, or phytotoxicity of 0% or more and less than 10%) | 0 (herbicidal effect of not less than 0% and less than 10%, or phytotoxicity of 0% or more and less than 10%) | 0 (herbicidal effect of not less than 0% and less than 10%, or phytotoxicity of 0% or more and less than 10%) | 0 (herbicidal effect of not less than 0% and less than 10%, or phytotoxicity of 0% or more and less than 10%) | 5 (herbicidal effect of not less than 90%, or phytotoxicity of 90% or more) | 5 (herbicidal effect of not less than 90%, or phytotoxicity of 90% or more) | 5 (herbicidal effect of not less than 90%, or phytotoxicity of 90% or more) | 5 (herbicidal effect of not less than 90%, or phytotoxicity of 90% or more) |
